In the data set the test system is CCRIS mutagenicity, Ames/micronucleus/aberration tests. The experiment in a line: CCRIS mutagenicity studies.
Where [1] appears, read: Test System: AMES SALMONELLA TYPHIMURIUM, Strain/Indicator: TA98, Metabolic Activation: NONE, Method: PREINCUBATION
[2] abbreviates: Test System: AMES SALMONELLA TYPHIMURIUM, Strain/Indicator: TA98, Metabolic Activation: RAT, LIVER, S-9, PCB, Method: PREINCUBATION
[3] abbreviates: Test System: AMES SALMONELLA TYPHIMURIUM, Strain/Indicator: TA100, Metabolic Activation: NONE, Method: PREINCUBATION
The mark [4] stands for this setting: Test System: AMES SALMONELLA TYPHIMURIUM, Strain/Indicator: TA100, Metabolic Activation: RAT, LIVER, S-9, PCB, Method: PREINCUBATION
Where [5] appears, read: Test System: AMES SALMONELLA TYPHIMURIUM, Strain/Indicator: TA98, Metabolic Activation: NONE, Method: STANDARD PLATE.

Calls of active or inactive are those of the source. How the calls were made is not given here.

Turning to `CNc1ccc2nc(C)c(C)nc2c1C`, the mutagenic call was “inactive; negative” under setting [1], “active; positive” under setting [2], “inactive; negative” under setting [3] and “active; positive” under setting [4].
On to `[Cl][Pt][Cl].c1cc2c3c(c1)CCCN3CCC2`, for which the mutagenic call (Test System: AMES SALMONELLA TYPHIMURIUM, Strain/Indicator: TA92, Metabolic Activation: NONE, Method: STANDARD PLATE) was “inactive; negative”; the mutagenic call under setting [5] was “inactive; negative”; the mutagenic call (Test System: AMES SALMONELLA TYPHIMURIUM, Strain/Indicator: TA100, Metabolic Activation: NONE, Method: STANDARD PLATE) is “inactive; negative”; the mutagenic call (Test System: AMES SALMONELLA TYPHIMURIUM, Strain/Indicator: TA2410, Metabolic Activation: NONE, Method: STANDARD PLATE) is “inactive; negative”; the mutagenic call (Test System: E. COLI, Strain/Indicator: TM6, Metabolic Activation: NONE, Method: STANDARD PLATE) is “inactive; negative”; the mutagenic call (Test System: E. COLI, Strain/Indicator: TM9, Metabolic Activation: NONE, Method: STANDARD PLATE) is “active; positive”.
Consider `CCCCCCCCCCCOC(=O)c1ccccc1C(=O)OCCCCCCCCCCC`, for which the mutagenic call is, setting by setting: (Test System: AMES SALMONELLA TYPHIMURIUM, Strain/Indicator: TA98, Metabolic Activation: HAMSTER, LIVER, S-9, AROCLOR 1254 (10%), Method: PREINCUBATION) “inactive; negative”; under setting [1], “inactive; negative”; (Test System: AMES SALMONELLA TYPHIMURIUM, Strain/Indicator: TA98, Metabolic Activation: RAT, LIVER, S-9, AROCLOR 1254 (10%), Method: PREINCUBATION) “inactive; negative”; (Test System: AMES SALMONELLA TYPHIMURIUM, Strain/Indicator: TA100, Metabolic Activation: HAMSTER, LIVER, S-9, AROCLOR 1254 (10%), Method: PREINCUBATION) “inactive; negative”; under setting [3], “inactive; negative”; (Test System: AMES SALMONELLA TYPHIMURIUM, Strain/Indicator: TA100, Metabolic Activation: RAT, LIVER, S-9, AROCLOR 1254 (10%), Method: PREINCUBATION) “inactive; negative”. The mutagenic call by setting is: (Test System: AMES SALMONELLA TYPHIMURIUM, Strain/Indicator: TA1535, Metabolic Activation: HAMSTER, LIVER, S-9, AROCLOR 1254 (10%), Method: PREINCUBATION) “inactive; negative”; (Test System: AMES SALMONELLA TYPHIMURIUM, Strain/Indicator: TA1535, Metabolic Activation: NONE, Method: PREINCUBATION) “inactive; negative”; (Test System: AMES SALMONELLA TYPHIMURIUM, Strain/Indicator: TA1535, Metabolic Activation: RAT, LIVER, S-9, AROCLOR 1254 (10%), Method: PREINCUBATION) “inactive; negative”; (Test System: AMES SALMONELLA TYPHIMURIUM, Strain/Indicator: TA1537, Metabolic Activation: HAMSTER, LIVER, S-9, AROCLOR 1254 (10%), Method: PREINCUBATION) “inactive; negative”; (Test System: AMES SALMONELLA TYPHIMURIUM, Strain/Indicator: TA1537, Metabolic Activation: NONE, Method: PREINCUBATION) “inactive; negative”; (Test System: AMES SALMONELLA TYPHIMURIUM, Strain/Indicator: TA1537, Metabolic Activation: RAT, LIVER, S-9, AROCLOR 1254 (10%), Method: PREINCUBATION) “inactive; negative”. For the same molecule, the mutagenic call is “inactive; negative” (Test System: MOUSE LYMPHOMA, Strain/Indicator: L5178Y (TK+/TK-), Metabolic Activation: NONE, Method: SUSPENSION/PLATE) and “inactive; negative” (Test System: MOUSE LYMPHOMA, Strain/Indicator: L5178Y (TK+/TK-), Metabolic Activation: RAT LIVER S-9, Method: SUSPENSION/PLATE).
In the case of `[O-][n+]1cc2cnccc2cn1`, the mutagenic call under setting [1] is “active; positive”, the mutagenic call under setting [2] was “active; positive”, the mutagenic call under setting [3] was “inactive; negative” and the mutagenic call under setting [4] is “inactive; negative”.
As for `Cc1cccc([N+](=O)[O-])c1C`, the mutagenic call under setting [1] is “inactive; negative”; the mutagenic call (Test System: AMES SALMONELLA TYPHIMURIUM, Strain/Indicator: TA98, Metabolic Activation: RAT, LIVER, S-9, KANECHLOR 500, Method: PREINCUBATION) was “inactive; negative”; the mutagenic call under setting [3] was “inactive; negative”; the mutagenic call (Test System: AMES SALMONELLA TYPHIMURIUM, Strain/Indicator: TA100, Metabolic Activation: RAT, LIVER, S-9, KANECHLOR 500, Method: PREINCUBATION) is “inactive; negative”.
Regarding `O=C(/C=C/c1ccc([N+](=O)[O-])o1)N/N=C/c1ccc([N+](=O)[O-])o1`, the mutagenic call runs as follows: (Test System: AMES SALMONELLA TYPHIMURIUM, Strain/Indicator: TA98(1,8-DNP6), Metabolic Activation: NONE, Method: STANDARD PLATE) “active; positive”; (Test System: AMES SALMONELLA TYPHIMURIUM, Strain/Indicator: TA98(1,8-DNP6), Metabolic Activation: RAT, LIVER, S-9, 3-METHYLCHOLANTHRENE, Method: STANDARD PLATE) “active; positive”; (Test System: AMES SALMONELLA TYPHIMURIUM, Strain/Indicator: TA98(NR), Metabolic Activation: NONE, Method: STANDARD PLATE) “active; positive”; (Test System: AMES SALMONELLA TYPHIMURIUM, Strain/Indicator: TA98(NR), Metabolic Activation: RAT, LIVER, S-9, 3-METHYLCHOLANTHRENE, Method: STANDARD PLATE) “active; positive”; under setting [5], “active; positive”; (Test System: AMES SALMONELLA TYPHIMURIUM, Strain/Indicator: TA98, Metabolic Activation: RAT, LIVER, S-9, 3-METHYLCHOLANTHRENE, Method: STANDARD PLATE) “active; positive”.

The values above are taken from PubChem BioAssay AID1259407 (Chemical Carcinogenesis Research Information System (CCRIS), 2018).
